Measurements published in PubChem BioAssay AID2060502 (Molecular Pharmacology Branch, DTP, NCI, 2025).

Tested on: 885724-159-R-J1-PDC complex spheroid viability
Assay: Anticancer human tumor 885724-159-R-J1-PDC patient-derived pancreatic adenocarcinoma cell line growth inhibition [GQUAD]
Conditions: for IC50: curve of first compound; for viability, T/C: stronger effect = lower value
From the text: DNA G-quadruplex Stabilizer Agents in Combinations in Complex Spheroids
A high-throughput screen of multi-cell type tumor spheroids was designed to identify active combinations of DNA G-quadruplex stabilizer agents and targeted small molecules. Complex spheroids include a stromal component modeled by human endothelial cells (HUVEC) and fibroblasts modeled by human mesenchymal stem cells (MSCs). The concentration ranges selected for each drug and investigational agent were based upon clinically achievable concentrations if the clinical Cmax of the agent was known.
Compounds. The drugs and investigational agents: pidnarulex (CX-5461; NSC782164), APTO-253 (NSC789042), BRACO-19 (NSC847499), peposertib (NSC802822), ceralasertib (NSC780249), elimusertib (NSC800525), camonsertib (NSC841442), AZD-1390 (NSC803789), olaparib (NSC753686), talazoparib (NSC767125), ART-558 (NSC835418), sotorasib (NSC818433), MRTX-1133 (NSC836407), SN-38 (NSC673596), topotecan (NSC609699), etoposide (NSC141540), doxorubicin (NSC123127), gemcitabine (NSC613327), 5-fluorouracil (NSC19893), paclitaxel (NSC125973), vemurafenib (NSC761431), panobinostat (NSC761190), R-306465 (JNJ-16241199; NSC773264), adavosertib (NSC754352), TP-3654 (NSC805149), carboplatin (NSC241240), KSQ-4279 (NSC840948), and staurosporine (NSC755774) were obtained from the National Cancer Institute (NCI) Developmental Therapeutics Program Chemical Repository (34). The FDA-approved anticancer drug set is available from the NCI Developmental Therapeutics Program. […] The stock solutions were prepared in dimethyl sulfoxide (DMSO, Sigma-Aldrich, St. Louis, MO, cat. D2650) at 800-fold the tested concentration and stored at -70 degrees C prior to their use. All drugs and investigational agents were tested over a range starting from a high concentration at or near the clinical Cmax and decreasing in half-log increments. If the clinical Cmax for an agent had not been determined, the highest concentration tested was 10 microM.
2.3 Cell Culture. All cells were maintained in an incubator at 37 degrees C and 5% CO2 with 95% humidity. The PDC lines were cultured according to standard operating procedures established by the NCI PDMR. All PDCs were thawed and cultured in Matrigel-coated flasks prepared with a working solution of 1X Ham's F-12 nutrient mix, without supplementation (Invitrogen, cat. 11765054), 100 U/mL penicillin-streptomycin (Invitrogen, cat. 15140122), and 2.5% Matrigel (Corning Inc., cat. 354248) for the first three passages. The 857933-349-R-J2-PDC line was cultured in 6C/Colon 1B media, which includes advanced DMEM/F-12 (Thermo Fisher Scientific, cat. 12634028), 10 mM HEPES (Thermo Fisher Scientific, cat. 15630080), 1X GlutaMAX supplement (Thermo Fisher Scientific, cat. 35050061), 0.1 mg/mL primocin (InvivoGen, cat. ant-pm-2), 10% defined fetal bovine serum, heat inactivated (HyClone Laboratories Inc., cat. SH30070.03HI), 50% L-WRN conditioned media (ATCC, cat. CRL-3276), 1.25 mM N-Acetyl-L-cysteine (Sigma-Aldrich, cat. A9165), 10 mM nicotinamide (Sigma-Aldrich, cat. N0636), 1X B-27 supplement (Thermo Fisher Scientific, cat. 17504044), 1X N-2 supplement (Thermo Fisher Scientific, cat. 17502048), 10 microM Y-27632 dihydrochloride (Tocris Bioscience, cat. 1254), and 50 ng/mL human EGF recombinant protein (Thermo Fisher Scientific, cat. PHG0311). The 485176-168-R4-J1-PDC line was cultured in Panc media, which includes all 6C/Colon 1B media components plus 100 ng/mL human FGF-10 (Thermo Fisher Scientific, cat. 100-26), 500 nM SB-431542 (Selleckchem, cat. S1067), and gastrin (Tocris, cat. 3006).
[…]

[1] = second compound 0.0316 µM, first compound 0.000999 µM
[2] = second compound 0.0316 µM, first compound 0.00316 µM
[3] = second compound 0.0316 µM, first compound 0.00999 µM
[4] = second compound 0.0316 µM, first compound 0.0316 µM
[5] = second compound 0.0316 µM, first compound 0.0999 µM
[6] = second compound 0.0316 µM, first compound 0.316 µM
[7] = second compound 0.1 µM, first compound 0.000999 µM
[8] = second compound 0.1 µM, first compound 0.00316 µM
[9] = second compound 0.1 µM, first compound 0.00999 µM
[10] = second compound 0.1 µM, first compound 0.0316 µM
[11] = second compound 0.1 µM, first compound 0.0999 µM
[12] = second compound 0.1 µM, first compound 0.316 µM
[13] = second compound 0.316 µM, first compound 0.000999 µM
[14] = second compound 0.316 µM, first compound 0.00316 µM
[15] = second compound 0.316 µM, first compound 0.00999 µM
[16] = second compound 0.316 µM, first compound 0.0316 µM
[17] = second compound 0.316 µM, first compound 0.0999 µM
[18] = second compound 0.316 µM, first compound 0.316 µM
[19] = second compound 1 µM, first compound 0.000999 µM
[20] = second compound 1 µM, first compound 0.00316 µM
[21] = second compound 1 µM, first compound 0.00999 µM
[22] = second compound 1 µM, first compound 0.0316 µM
[23] = second compound 1 µM, first compound 0.0999 µM
[24] = second compound 1 µM, first compound 0.316 µM
[25] = second compound 3.16 µM, first compound 0.000999 µM
[26] = second compound 3.16 µM, first compound 0.00316 µM
[27] = second compound 3.16 µM, first compound 0.00999 µM
[28] = second compound 3.16 µM, first compound 0.0316 µM
[29] = second compound 3.16 µM, first compound 0.0999 µM
[30] = second compound 3.16 µM, first compound 0.316 µM
[31] = second compound 10 µM, first compound 0.000999 µM
[32] = second compound 10 µM, first compound 0.00316 µM
[33] = second compound 10 µM, first compound 0.00999 µM
[34] = second compound 10 µM, first compound 0.0316 µM
[35] = second compound 10 µM, first compound 0.0999 µM
[36] = second compound 10 µM, first compound 0.316 µM
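Also: spheroids exposed to agents for seven days before readout.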
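For viability, T/C in this document: percent of vehicle control viability where 100% = DMSO wells.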

Cc1[nH]c2ccccc2c1CCNCc1ccc(/C=C/C(=O)NO)cc1 + CN(C)c1ccc(Nc2c3ccc(NC(=O)CCN4CCCC4)cc3nc3cc(NC(=O)CCN4CCCC4)ccc23)cc1
IC50 (second compound 0.0316 µM): > 316 nM | IC50 (second compound 0.1 µM): > 316 nM | IC50 (second compound 0.316 µM): 286 nM | IC50 (second compound 1 µM): 214 nM | IC50 (second compound 3.16 µM): 92.9 nM | IC50 (second compound 10 µM): 152 nM | viability, T/C [1]: 103% | viability, T/C [2]: 98.3% | viability, T/C [3]: 93.1% | viability, T/C [4]: 96.9% | viability, T/C [5]: 124% | viability, T/C [6]: 60.1% | viability, T/C [7]: 99.8% | viability, T/C [8]: 91.7% | viability, T/C [9]: 95% | viability, T/C [10]: 125% | viability, T/C [11]: 105% | viability, T/C [12]: 54.1% | viability, T/C [13]: 84.7% | viability, T/C [14]: 94% | viability, T/C [15]: 95.3% | viability, T/C [16]: 84.6% | viability, T/C [17]: 112% | viability, T/C [18]: 45.7% | viability, T/C [19]: 90.3% | viability, T/C [20]: 75.6% | viability, T/C [21]: 75.5% | viability, T/C [22]: 77.5% | viability, T/C [23]: 69.8% | viability, T/C [24]: 40.3% | viability, T/C [25]: 65.2% | viability, T/C [26]: 81.4% | viability, T/C [27]: 82.1% | viability, T/C [28]: 73.1% | viability, T/C [29]: 48.5% | viability, T/C [30]: 40.1% | viability, T/C [31]: 65% | viability, T/C [32]: 58.3% | viability, T/C [33]: 59.6% | viability, T/C [34]: 55.6% | viability, T/C [35]: 69.3% | viability, T/C [36]: 30%

Cn1ncnc1[C@H]1c2n[nH]c(=O)c3cc(F)cc(c23)N[C@@H]1c1ccc(F)cc1 + CN(C)c1ccc(Nc2c3ccc(NC(=O)CCN4CCCC4)cc3nc3cc(NC(=O)CCN4CCCC4)ccc23)cc1
IC50 (second compound 0.0316 µM): > 316 nM | IC50 (second compound 0.1 µM): > 316 nM | IC50 (second compound 0.316 µM): > 316 nM | IC50 (second compound 1 µM): > 316 nM | IC50 (second compound 3.16 µM): > 316 nM | IC50 (second compound 10 µM): > 316 nM | viability, T/C [1]: 99% | viability, T/C [2]: 96.7% | viability, T/C [3]: 98.9% | viability, T/C [4]: 107% | viability, T/C [5]: 78.5% | viability, T/C [6]: 84.9% | viability, T/C [7]: 101% | viability, T/C [8]: 112% | viability, T/C [9]: 112% | viability, T/C [10]: 93.1% | viability, T/C [11]: 96% | viability, T/C [12]: 88.3% | viability, T/C [13]: 103% | viability, T/C [14]: 96.2% | viability, T/C [15]: 97.3% | viability, T/C [16]: 86% | viability, T/C [17]: 97.2% | viability, T/C [18]: 82.1% | viability, T/C [19]: 101% | viability, T/C [20]: 75.7% | viability, T/C [21]: 85.8% | viability, T/C [22]: 73.4% | viability, T/C [23]: 76.7% | viability, T/C [24]: 76.2% | viability, T/C [25]: 86.4% | viability, T/C [26]: 79% | viability, T/C [27]: 76% | viability, T/C [28]: 76.5% | viability, T/C [29]: 81.6% | viability, T/C [30]: 75.6% | viability, T/C [31]: 67.3% | viability, T/C [32]: 85.9% | viability, T/C [33]: 78% | viability, T/C [34]: 74.2% | viability, T/C [35]: 75.8% | viability, T/C [36]: 77%
